# What was measured:
# [1] = system: nuclear transfer oocytes (nuclei from cumulus cells in enucleated oocytes); assay: Expanded blastocyst formation of nuclear transfer oocytes (cumulus cell nuclei); assay type: cell-based, mouse
# Experimental: Production of cloned mice including production of nuclear transfer embryos was carried out according to the method as described in Non-patent Document 5. Briefly, pregnant mare serum gonadotrophin (PMSG) was first administered to 8-weeks-old female B6D2F1 (C57BL/6 XDBA/2) mice (Japan SLC) for superovulation treatment. Human choriogonadotropin (hCG) was administered after 48 hours. Oocytes were collected after 16 hours. Nuclei were removed from the collected unfertilized oocytes in the presence of 5 μg/ml of cytochalasin B using a micromanipulator (enucleation).
# Next, cell membranes of cumulus cells from a B6D2F1 mouse as donor somatic cells suspended in a 1.2% polyvinylpyrrolidone (PVP) solution were destroyed using an injection pipette, and the nuclei were injected into the enucleated oocytes using a micromanipulator (nuclear transfer). A piezo drive apparatus (Prime Tech) was used to generate piezo-pulses for penetration of zona pellucida or cell membranes which is required for injection of nuclei.
# The thus obtained nuclear transfer oocytes were cultured in a CO2 incubator at 37° C. for 30 minutes to 1 hour. The oocytes were then transferred to an oocyte activation solution (Ca^2+-free CZB medium supplemented with 5 mM strontium chloride (SrCl2) and 5 μg/ml of cytochalasin B (Non-patent Document 10)) containing 0.5, 5, 50 or 500 nM trichostatin A (hereinafter referred to as TSA) to artificially activate the oocytes and initiate the development. Activation of oocytes was confirmed 6 hours after the initiation of activation using pronuclei formation as an index. Activated nuclear transfer oocytes were transferred to KSOM medium (Specialty Media) containing TSA at the same concentration, and cultured for further 14 hours (for 20 hours after the initiation of activation) in the medium. For a control, dimethyl sulfoxide (DMSO), which was used for dissolving TSA, was used in place of TSA to produce the same concentration.
# Then, the nuclear transfer embryos at the 2-cell stage were cultured in KSOM medium without TSA until 96 hours after the initiation of activation, and development into expanded blastocysts was observed. The development into expanded blastocyst was confirmed by culturing for 96 hours after the initiation of activation and then observing under a microscope one in which the volume of embryo was increased to result in expansion of the blastocyst and thinning of zona pellucida among blastocysts having blastocoels. 80 or more embryos were examined in each of the experimental groups of the respective concentrations.
# The ratio of the developed blastocysts to the number of nuclear transfer oocytes used (blastocyst formation rate (%)) was determined. The ratio of the developed expanded blastocysts to the number of oocytes that initiated cleavage (i.e., developed into the 2-cell stage) among the reconstructed nuclear transfer oocytes (blastocyst formation rate (%)) was determined.
# Nuclear transfer oocytes were produced by injecting nuclei from cumulus cells into enucleated oocytes according to the method as described in Example 1, cultured in KSOM medium containing TSA at a concentration of 5 nM for various periods of time (for 0, 24, 48 or 72 hour(s) from the initiation of activation), and then cultured in KSOM medium without TSA until 96 hours after the initiation of activation. Then, development into expanded blastocysts was observed and the blastocyst formation rate was determined. […]
# nuclear transfer embryos = assay: Birth rate of cloned mice after implantation of treated nuclear transfer embryos; assay type: in vivo, mouse
# Experimental: Based on the results of Example 3, the effect of the TSA treatment on the fetus birth rate was examined. […] after the initiation of activation and transferred to KSOM medium without TSA, and the nuclear transfer embryos transferred to KSOM medium without TSA were cultured in this medium until implantation. For producing cloned mice, embryos at the 2-cell stage were implanted into oviducts of pseudopregnant mice (surrogate mothers, day 0.5) on the day after the nuclear transfer. The pseudopregnancy treatment was carried out by mating a ICR female mouse (in estrus) with an ICR vasectomized male mouse on a one-to-one basis. The successful mating was confirmed based on the presence of plug formation. Cloned mice were delivered by cesarean section 19 days after the embryo transfer into oviduct. The ratio of the number of born cloned mouse fetuses to the number of implanted embryos (birth rate) was determined. Cloned mouse fetuses and placentas immediately after birth (left), and cloned mice (black) and a surrogate mother (white) after three weeks (right) are shown in FIG. 6.
# [2] = system: oocytes injected with nuclear domains of round spermatids; assay: Birth rate after round spermatid injection (ROSI); assay type: in vivo, mouse
# Experimental: The effect of the TSA treatment according to the present invention on round spermatid injection (ROSI) was examined. ROSI was carried out according to the method as described in Non-patent Document 13.
# Briefly, human choriogonadotropin (hCG) was first administered to female B6D2F1 mice (Japan SLC). Oocytes were collected after 16 hours and placed in a CZB medium. The oocytes were then transferred to a KSOM medium and incubated at 37° C. under 5% CO2.
# The oocytes were activated by incubation in Ca^2+-free CZB medium supplemented with 5 mM strontium chloride (SrCl2) for 20 minutes. After 40 to 80 minutes, the oocytes were injected with the nuclear domains of round spermatids (characterized by diameters of about 10 μm and centrally located distinct nucleoli; see Non-patent Document 14) collected from a male C57BL/6 mouse (Japan SLC).
# The oocytes injected with nuclei were transferred to KSOM medium containing 5 nM TSA, and further transferred to KSOM medium without TSA 10 hours after the initiation of activation.
# Embryos at the 2-cell stage were implanted into oviducts of pseudopregnant mice (surrogate mothers, day 0.5) on the day after the spermatid injection. Fetuses were obtained by cesarean section 19 days after the embryo implantation. The ratio of the number of born fetuses to the number of implanted embryos (birth rate) was determined.
# [3] = system: oocytes after fertilization; settings: treatment of oocytes after fertilization; Non-patent Document 3; cited from earlier work
structure (smiles),measurement,setting,value
"CC(/C=C/C(=O)NO)=C\[C@@H](C)C(=O)c1ccc(N(C)C)cc1 [TSA, trichostatin A]",blastocyst development rate compared with the case without TSA,"[1]; TSA 5 nM for 24 or 48 hours from initiation of activation, FIG. 4",increased
same,blastocyst development rate among treatment periods,"[1]; TSA 5 nM for 10 hours after initiation of activation, FIG. 5",highest
same,increase in blastocyst development rate,[1]; TSA 5 nM for 24 hours from initiation of activation,about 4 fold
same,development rate compared with the case without TSA,[1]; TSA 5 nM for 72 hours from initiation of activation,reduced
same,blastocyst formation rate compared with the case without TSA,"[1]; TSA 5, 50 or 500 nM, 20 hours after initiation of activation, observed at 96 hours, FIG. 2",increased
same,Birth rate (%),"nuclear transfer embryos; TSA 5 nM, treatment time 10 h",6.2%
same,Number of born fetuses,"nuclear transfer embryos; TSA 5 nM, treatment time 10 h, 289 implanted embryos",18
same,Birth rate (%),"nuclear transfer embryos; TSA 5 nM, treatment time 20 h",3.2%
same,Number of born fetuses,"nuclear transfer embryos; TSA 5 nM, treatment time 20 h, 274 implanted embryos",9
same,Birth rate (%),"nuclear transfer embryos; TSA 50 nM, treatment time 10 h",7.7%
same,Number of born fetuses,"nuclear transfer embryos; TSA 50 nM, treatment time 10 h, 91 implanted embryos",7
same,Birth rate (%),"nuclear transfer embryos; TSA 50 nM, treatment time 20 h",2.5%
same,Number of born fetuses,"nuclear transfer embryos; TSA 50 nM, treatment time 20 h, 81 implanted embryos",2
same,birth rate vs control,nuclear transfer embryos; TSA treatment for 10 hours or 20 hours,increased
same,increase in birth rate vs control without TSA,[2]; TSA 5 nM,about 4 fold
same,Birth rate (%),[2]; TSA 5 nM until 10 hours after initiation of activation,26.3%
same,Birth number,"[2]; TSA 5 nM until 10 hours after initiation of activation, 38 implanted embryos",10
same,development rate,[3],reduced

# Source: US20090055945A1, “Method for Producing Nuclear-Transplanted Egg” (priority 2005, published 2009)
